Data on one compound can be found in patent US20210317143A9, “BORONIC ESTER PRODRUGS AND USES THEREOF” (Massachusetts Institute of Technology, priority 2019, published 2021).

In one data set the test system is MM.1S cells. Nature of the data set: In vitro cell viability assay (Celltiter glo) in MM.1S. The format is cell-based. As to conditions: Homo sapiens, MM1.S, effect on cell proliferation after 48 h of incubation. The protocol:
(§1) The effect on cell proliferation after 48 h of incubation with each agent was compared.
(§2) Both cell lines were cultured in RPMI media (ThermoFisher Scientific) supplemented with 10% FBS (VWR), 1% Penicillin/Streptomycin (ThermoFisher Scientific), and 1% glutamine (ThermoFisher Scientific). MM.1SLuc+/GFP+ cells were generated by retroviral transduction and authenticated by short tandem repeat DNA profiling. All cell lines were confirmed to be mycoplasma negative using the kit MycoAlert Mycoplasma (Lonza). Cell lines were housed in 5% CO2 and 37° C., incubators.
(§3) Cells were plated at 10,000 cells/well in a 96 well plate overnight and then treated for 48 hours with either bortezomib (Btz) or Btz-bottlebrush (BBP) at various concentrations. Cell viability assay was performed using the Celltiter glo reagent kit (Promega).
(§4) Toxicological studies were carried out including in vitro cell viability experiments and in vivo survivability studies (FIGS. 8A to 8B and FIG. 9A, respectively). The in vitro cell viability studies were carried out in both MM S model (for experimental details see Manier, S, et al., Science Translational Medicine 2017, 9, 389) and KMS11 flank cancer model. […] For the maximum tolerated dose (MTD) studies, animals (n=3-5) were dosed 4 times, with the exception that the 20 mg/kg group was dosed three times.
(ATP-based viability assays read luminescence as a measure of living cells.)

The test system of another data set is KMS11 cells. As to the kind of experiment: In vitro cell viability assay (Celltiter glo) in KMS11. It is filed as cell-based. As to conditions: Homo sapiens, KMS-11; KMS11, effect on cell proliferation after 48 h of incubation. How it is done: as §1, §2, §3, §4
Data set [1] is described as follows: In vivo toxicity / maximum tolerated dose in healthy BALB/c mice. Conditions: BALB/c, mouse, in vivo, subcutaneous. The protocol:
(§5) Mice were euthanized if their body weight reached a 20% loss.
as §4

The subject of a further data set is healthy BALB/c mice. The data set is described as above. As to conditions: twice a week. The protocol: as §5, §4
A further data set relates to KMS11 subcutaneous tumor. As to the kind of experiment: Efficacy study in subcutaneous model of MM (KMS11). The format is in vivo, mice. As to conditions: 0.75 mg/kg twice a week (Btz at MTD; Btz-BBP dose-match, intravenous).
A further data set relates to MM.1SLuc+/GFP+ cells. Conditions: 0.75 mg/kg (free Btz MTD; Btz-BBP dose-match).

Protocol for KMS11 subcutaneous tumor: Treatments were administered over a period of 50 days, after which tumor were left to freely progress.
The subcutaneous model of MM was generated with an injection of 3 million KMS11 cells in the hind flank of NCR nude mice. […] Tumor growth was monitor by caliper measurements (tumor measurement. TM). Once the tumor reached 1 cm in diameter, mice were randomly attributed to a treatment group. […] Drug was injected twice a week for a period of 4 weeks (8 injections in total) after mice were enrolled in the study. Mice body weight were tracked till day 50 (body weight measurement, BWM). Animals were sacrificed once the tumor reached 2 cm in the longest axis.
Protocol for MM.1SLuc+/GFP+ cells: The tumors were induced via intravenous injection of MM.1SLuc+/GFP+ cells, and tumor progression was quantified by bioluminescence via the luciferase signal expressed by the MM.1S cells (FIGS. 12A to 12F). […] Mice (n=5) were treated for 30 days with the same treatment groups and dosing schedule described in the previous tumor model.
The orthotopic model of MM was obtained by injecting intravenously 1.5 million MM.1SLuc+/GFP+ cells in the tail vain of SCID/beige mice. Tumor dissemination was assessed by IVIS imaging (IVIS Spectrum. Perkin Elmer, bioluminescence imaging, BLI) once a week. […] Drug was injected twice a week for a period of 2 weeks (4 injections in total). Tumor burden response was obtained by IVIS imaging performed once a week. After 25 days, treatment was stopped. Endpoint criteria of the study was hind limb paralysis or loss of >20% of their initial body weight.

On to `CC(C)C[C@H](NC(=O)[C@H](Cc1ccccc1)NC(=O)c1cnccn1)B(O)O` [Btz, bortezomib], for which the IC50 in the data set on MM.1S cells came to 3.5 ± 1.4 nM; in the data set on KMS11 cells it was 29.9 ± 1.6 nM. This compound gave a maximal tolerated dose (MTD) at 4 weeks in data set [1] of 0.75 mg/kg. The “survival rates at higher doses” value with healthy BALB/c mice (free Btz above 0.75 mg/kg (1, 1.25 mg/kg)) is reported as “rapid decrease of the survival rates”. Besides, the “well-tolerated / safe dose” value in the data set on healthy BALB/c mice (healthy BALB/c mice) was 0.75 mg/kg. This compound registered a mean survival time with KMS11 subcutaneous tumor of 42 ± 6 days. Besides, in the data set on MM.1SLuc+/GFP+ cells, the therapeutic improvement result is on record as “diminished improvements”.

As usually defined, the IC50 is the concentration that inhibits the measured activity by half. High values mean a need for much substance, low ones inhibition by little substance. As usually defined, the MTD is the highest dose tested that stayed within the study's limit of toxicity. High values mean a wide tolerated range, low ones a narrow tolerated range.
